Data as given in patent US10633395B2, “Aryloxazolidinone antibiotic compounds” (Idorsia Pharmaceuticals Ltd., priority 2017, dated 2020).
Values after ≈ are worked out from the molar mass of the structure shown.

Experiments:
[1] = system: Staphylococcus aureus A798; experiment: Bacterial growth minimal inhibitory concentration (microdilution), S. aureus A798; format: cell-based; details: multiply resistant (quinolone-resistant) strain, cation-adjusted Mueller-Hinton Broth
Procedure: (§1) Bacterial growth minimal inhibitory concentrations: Minimal inhibitory concentrations (MICs; mg/L) were determined in cation-adjusted Mueller-Hinton Broth by a microdilution method following the description given in “Methods for Dilution Antimicrobial Susceptibility Tests for Bacteria that Grow Aerobically”, Approved standard, 7th ed., Clinical and Laboratory Standards Institute (CLSI) Document M7-A7, Wayne, Pa., USA (2006).
(§2) The compound of Example 1 according to the present invention (inv.) and reference compounds 4 (ref.) to 9 (ref.) were tested against several Gram-positive and Gram-negative bacteria. Staphylococcus aureus A798 is a multiply resistant strain (in particular quinolone-resistant), Klebsiella pneumoniae A-651 is a multiply resistant strain (in particular quinolone-resistant), while E. coli ATCC25922 and P. aeruginosa ATCC27853 are quinolone-sensitive strains. The corresponding antibacterial test results are given in Table 1 hereafter (MICs in mg/L).

[2] = Metabolic stability: intrinsic clearance in human liver microsomes; format: in vitro ADME; details: 1 μM compound, up to 45 minutes
Procedure: Metabolic stability: Subcellular liver fractions and primary hepatocytes from different species were used to determine the in vitro intrinsic clearance of a compound in various species. The liver microsomal and hepatocytes in vitro half-life approach can be a suitable approach to measure intrinsic clearance in vitro, which can be scaled up to the in vivo situation and used in the prediction of human clearance (Obach et al., 1997). For this approach, […] were incubated for up to 45 minutes in subcellular liver fractions or 2 h in primary hepatocytes at final compound concentration of 1 μM. Disappearance of parent compound was determined by LC-MS analysis and intrinsic clearance calculated from the slope of compound disappearance thereof.
Metabolic stability of the compounds according to the present invention (inv.) and reference compounds (ref.) in human liver microsomes and inhibition of the human cytochrome P450 (CYP450) isoforms 3A4, 2C9 and 2D6 are given in Table 4 hereafter.

[3] = system: CYP3A4, CYP2C9 and CYP2D6 (lowest IC50 of the isoforms measured); experiment: Cytochrome P450 inhibition in human liver microsomes; format: in vitro ADME; details: lowest of isoforms 3A4, 2C9 and 2D6, 0-100 μM test compound, read-out: CYP450 lowest IC50 of the isoenzymes measured
Procedure: Cytochrome P450 inhibition: The objective of this in vitro assay was to assess potential inhibition of the human cytochrome P450 (CYP450) isoforms 3A4, 2C9 and 2D6 using human liver microsomes and isoform-specific marker reactions. […] This may affect plasma levels in vivo and potentially lead to adverse drug reactions or toxicity. Technically, specific marker-substrate of P450 enzymes were incubated with human liver microsomes in the presence/absence of a test compounds. The inhibition effect of the test compound towards the marker reaction was determined in incubations containing 0-100 μM of the test compound. The inhibitory effect was determined by the impact of the different compound concentrations towards the metabolite formation of the marker reaction. Formation of the metabolites was determined by LC-MS analysis. Metabolic stability of the compounds according to the present invention (inv.) and reference compounds (ref.) in human liver microsomes and inhibition of the human cytochrome P450 (CYP450) isoforms 3A4, 2C9 and 2D6 are given in Table 4 hereafter.

P. aeruginosa ATCC27853 = experiment: Bacterial growth minimal inhibitory concentration (microdilution), P. aeruginosa ATCC27853; format: cell-based; details: Pseudomonas aeruginosa, quinolone-sensitive strain, cation-adjusted Mueller-Hinton Broth, read-out: MIC for P. aeruginosa AT0027853
Procedure: as §1, §2

[4] = system: Klebsiella pneumoniae A-651; experiment: Bacterial growth minimal inhibitory concentration (microdilution), K. pneumoniae A-651; format: cell-based; details: A651, multiply resistant (quinolone-resistant) strain, cation-adjusted Mueller-Hinton Broth
Procedure: as §1, §2

E. coli ATCC25922 = experiment: Bacterial growth minimal inhibitory concentration (microdilution), E. coli ATCC25922; format: cell-based; details: Escherichia coli, quinolone-sensitive strain, cation-adjusted Mueller-Hinton Broth
Procedure: as §1, §2

CHO cells = experiment: Genetic toxicology: in vitro micronuclei formation in CHO cells; format: cell-based, Chinese hamster; details: 24 h treatment, ratio versus untreated cells
Procedure: Genetic toxicology testing of compounds to assess their ability to cause DNA damage was done in vitro in mammalian cell assays (CHO cells). The formation of micronuclei, small DNA-staining particles outside of the nucleus, was investigated in mononucleated and binucleated cells treated with increasing concentrations of a test compound for 24 h. DNA was stained with Hoechst 33342 (Mutat Res. 630:1-13, 2007), read with a high-content screening microscope (Opera Phenix, Perkin Elmer) and scored with an optimized algorithm using Harmony. Micronucleii associated with valid cells were enumerated and induction of micronuclei formation tabulated as ratio versus untreated cells if the fraction of valid cells was ≥0.2.
Genetic toxicity potential of the compound of Example 1 according to the present invention (inv.) and reference compounds (ref.) was assessed and the corresponding test results are given in Table 3 hereafter.

wild-type E. coli A-1261 = experiment: MIC against wild-type E. coli A-1261 with or without alkaline phosphatase or esterase (prodrug activation); format: cell-based; details: for MIC for E. coli A-1261 In the presence of an alkaline phosphatase (2 i.U./mL): alkaline phosphatase from bovine intestinal mucosa; for MIC for E. coli A-1261 In the presence of an esterase (10 i.U./mL): esterase from porcine liver; for MIC for E. coli A-1261 In the absence of alkaline phosphatase and esterase: no alkaline phosphatase, no esterase
Procedure: as §1
The compounds of Examples 2 and 3 of the present invention (inv.) were tested against wild-type E. coli A-1261 in the presence of alkaline phosphatase (from bovine intestinal mucosa: Sigma P6774-2KU; Lot: SLBB1168) or esterase (from porcine liver: Sigma E2884-5KU; Lot: 129K7010V), and in the absence of an alkaline phosphatase and esterase. The corresponding antibacterial test results are given in Table 2 hereafter (MICs in mg/L).

| SMILES | MIC [1] [µg/mL] | Intrinsic clearance in human liver microsomes [2] | IC50 [3] [µM] | MIC (P. aeruginosa ATCC27853) [µg/mL] | MIC [4] [µg/mL] | MIC (E. coli ATCC25922) [µg/mL] | Maximal induction of micronuclei formation normalized vs. background (CHO cells) | MIC for E. coli A-1261 In the presence of an alkaline phosphatase (2 i.U./mL) (wild-type E. coli A-1261) [µg/mL] | MIC for E. coli A-1261 In the presence of an esterase (10 i.U./mL) (wild-type E. coli A-1261) [µg/mL] | MIC for E. coli A-1261 In the absence of alkaline phosphatase and esterase (wild-type E. coli A-1261) [µg/mL] |
| --- | --- | --- | --- | --- | --- | --- | --- | --- | --- | --- |
| O=C1COc2ccc(N3C[C@H](CCCN[C@@H]4Cn5c(=O)ccc6cccc4c65)OC3=O)nc2N1 [Example 1, (S)-1-{3-[(S)-2-oxo-3-(3-oxo-3,4-dihydro-2H-pyrido[3,2-b][1,4]oxazin-6-yl)-oxazolidin-5-yl]-propylamino}-1,2-dihydro-pyrrolo[3,2,1-ij]quinolin-4-one] | 0.031 (≈ 0.0672 µM) | 15 μL/min * mg microsomal protein | > 50 | 1 (≈ 2.17 µM) | 0.5 (≈ 1.08 µM) | 0.25 (≈ 0.542 µM) | 2.5 |  |  |  |
| O=C1COc2ccc(N3C[C@H](CCCN(C(=O)OCOP(=O)(O)O)[C@@H]4Cn5c(=O)ccc6cccc4c65)OC3=O)nc2N1 [Example 2] |  |  |  |  |  |  |  | 0.25 | >8 | >8 |
| O=C1COc2ccc(N3C[C@H](CCCN(C(=O)OCOC(=O)CCc4ccccc4OP(=O)(O)O)[C@@H]4Cn5c(=O)ccc6cccc4c65)OC3=O)nc2N1 [Example 3] |  |  |  |  |  |  |  | 0.25 | 1 | >8 |
